# System: human non-small cell lung adenocarcinoma cell line H2087—polypeptide FLLGNLFFV (SEQ ID NO:1)
# Assay: DC polypeptide vaccine in subcutaneous tumor-modeled mice
# Type: in vivo, NOD/SCID mice
# Conditions: DCs loaded with the polypeptide, intracutaneous, vs DCs loaded with wild-type polypeptide; FIG. 6
# Description: The human non-small cell lung adenocarcinoma cell line NCI-H2087 which is HLA-A*0201 positive was purchased from ATCC (Cat. No.: CRL-5922). The cell line NCI-H2087 was incubated in the Dulbecco's Modified Eagle Medium (DMEM) containing 10% fetal calf serum, 100 U/mL penicillin and 100 U/mL streptomycin in an incubator under 37° C. and 5% CO2, and subsequently infected with the lentivirus expressing the mutant polypeptide (depicted in […], SEQ ID NO:1) as prepared in 6.1. Afterwards, the infected cells were incubated with the Puromycin antibiotic for a certain duration to screen out those viable infected cells, i.e., obtaining the human non-small cell lung adenocarcinoma cell line H2087 which expresses the mutant polypeptide (depicted in […], SEQ ID NO:1) and named as the human non-small cell lung adenocarcinoma cell line H2087—polypeptide […] (SEQ ID NO:1).
# After isolated with Ficoll solution from 600 to 900 ml anticoagulant peripheral blood from a healthy volunteer, the collected PBMCs in a concentration of 2×10^7 cells/0.5 ml were intraperitoneally injected into each of 300 NOD SCID mice without immune leakage, so as to reconstruct a human immune system in the NOD SCID mice, with the mice after 4 weeks selected for subsequent inoculation of the human non-small cell lung adenocarcinoma cell line H2087—polypeptide […] obtained in 6.2.
# The human non-small cell lung adenocarcinoma cell line H2087—polypeptide […] (SEQ ID NO:1) obtained in 6.2 was incubated in DMEM medium containing 10% fetal calf serum, 100 U/mL penicillin and 100 U/mL streptomycin in an incubator under 37° C. and 5% CO2, and then the cells were centrifuged at 3000 rpm for collection. The collected cells were washed with sterile physiological saline three times, and then diluted appropriately. To 40 μl tumor cell suspension, 10 μl 0.4% […] was added for staining, subsequently the tumor cell suspension in a concentration of 1×10^8 cells/ml was prepared after counting under microscope. 100 μl of the tumor cell suspension was inoculated into each of the NOD/SCID mice by subcutaneous injection at 4 weeks post immune reconstruction in 6.3, with daily observation of the presence/absence of infection at inoculation sites, the increase/decrease of tumor size (in the case of presence of a tumor), and measurement of the major axis (a) and the minor axis (b) of a tumor by a vernier caliper every 2 or 3 days (where the tumor size=a×b×b/2). After 7 days from inoculation, a tumor in a size of rice grain was touchable at the inoculation site. After that, the subcutaneous tumor-modeled NOD/SCID mice (modeled with H2087—polypeptide […] (SEQ ID NO:1)) were treated with a polypeptide+complete Freund's adjuvant vaccine, a polypeptide+DCs vaccine, a lentivirus-infected DCs vaccine and a DC-CTL vaccine respectively, with the tumor size and mouse survival rate observed and recorded every 2 days.
# Peripheral blood mononuclear cells (PBMCs) in 100 to 150 mL anticoagulant peripheral blood obtained from a healthy volunteer were isolated with Ficoll solution. The collected PBMCs suspended in the RPMI 1640 medium in a concentration of 2×10^6-3×10^6 cells/ml were incubated at 37° C. for 2 hours, obtaining adherent monocytes which can be induced into DCs, and non-adherent peripheral blood lymphocytes (PBLs) for use. Such the monocytes were induced into immature DCs in the presence of GM-CSF (1000 U/ml) and IL-4 (1000 U/ml), followed by inducing to mature DCs in the presence of IFN-γ (100 U/ml) and CD40L (10 ng/ml), as well as the subsequently added 10 μg/ml wild-type polypeptide (depicted in […], SEQ ID NO:5), 10 μg/ml mutant polypeptide (depicted in […], SEQ ID NO:1), 10 μg/ml mutant polypeptide's variant (depicted in […], SEQ ID NO:2), 10 μg/ml mutant polypeptide's variant (depicted in […], SEQ ID NO:3), and 10 μg/ml mutant polypeptide's variant (depicted in […], SEQ ID NO:4), respectively. […]
Sequence,Mouse survival period,Tumor growth
FLLGNLFFL,prolonging the mouse survival period,mitigating tumor growth significantly
FLLGNLFFV,prolonging the mouse survival period,mitigating tumor growth significantly
FMLGNLFFL,prolonging the mouse survival period,mitigating tumor growth significantly
FMLGNLFFV,prolonging the mouse survival period,mitigating tumor growth significantly
